# Activity calls are given as the source filed them.
# Legend:
# [1] = target: T1, Runt-related transcription factor 1/Core-binding factor subunit beta (Homo sapiens, UniProt Q01196+Q13951); assay: disruptors of Runt domain/CBFb-SMMHC interaction – biochemical, FRET, Cerulean-Runt, Venus-CBFb-SMMHC, uHTS, […] (AID 1434); type: protein assay
# [2] = target: T1, Runt-related transcription factor 1/Core-binding factor subunit beta; assay: Runt domain/CBFb-SMMHC interaction disruptors – biochemical, TR-FRET (AID 1438); type: protein assay
# [3] = target: Intestinal-type alkaline phosphatase (Mus musculus, UniProt P24822); assay: PubChem AID 488874; type: functional
# [4] = target: T2, Intestinal-type alkaline phosphatase (Homo sapiens, UniProt P09923); assay: human intestinal alkaline phosphatase activators, dose response, biochemical, luminescence, uHTS hits (AID 463120); type: functional
# [5] = target: T2, Intestinal-type alkaline phosphatase; assay: activation of human intestinal alkaline phosphatase – biochemical, luminescent, uHTS hits, set 2, dose response (AID 488817); type: functional;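 note: potency of activators that raise enzyme activity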
# [6] = target: T3, Alkaline phosphatase, tissue-nonspecific isozyme (Homo sapiens, UniProt P05186); assay: activation of tissue-nonspecific alkaline phosphatase – biochemical, TNAP isozyme, human IAP uHTS hits, selectivity assay for human IAP activator project, dose response (AID 488886); type: functional;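 note: potency of compounds raising TNAP activity as a selectivity check on IAP activators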
# T3 sequence (P05186 whole entry): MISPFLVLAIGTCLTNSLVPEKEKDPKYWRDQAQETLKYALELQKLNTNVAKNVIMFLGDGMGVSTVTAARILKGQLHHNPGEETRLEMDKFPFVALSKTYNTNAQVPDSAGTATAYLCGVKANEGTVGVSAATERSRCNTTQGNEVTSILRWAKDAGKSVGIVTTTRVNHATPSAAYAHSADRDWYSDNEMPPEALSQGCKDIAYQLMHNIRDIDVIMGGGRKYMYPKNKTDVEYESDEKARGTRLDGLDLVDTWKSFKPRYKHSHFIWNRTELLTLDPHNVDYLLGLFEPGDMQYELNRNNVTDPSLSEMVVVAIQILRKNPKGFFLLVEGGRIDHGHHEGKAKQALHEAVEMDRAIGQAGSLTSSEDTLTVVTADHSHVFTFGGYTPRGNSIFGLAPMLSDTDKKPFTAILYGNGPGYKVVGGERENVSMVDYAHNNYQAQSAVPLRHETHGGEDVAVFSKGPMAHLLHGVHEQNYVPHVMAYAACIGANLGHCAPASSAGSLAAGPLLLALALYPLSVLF
# [7] = target: T4, High affinity choline transporter 1 (Homo sapiens, UniProt Q9GZV3); assay: human choline transporter blockers, potency – cell-based, 5-point CRC, membrane potential dye, dose response (AID 504840); type: functional
# T4 sequence (Q9GZV3 whole entry): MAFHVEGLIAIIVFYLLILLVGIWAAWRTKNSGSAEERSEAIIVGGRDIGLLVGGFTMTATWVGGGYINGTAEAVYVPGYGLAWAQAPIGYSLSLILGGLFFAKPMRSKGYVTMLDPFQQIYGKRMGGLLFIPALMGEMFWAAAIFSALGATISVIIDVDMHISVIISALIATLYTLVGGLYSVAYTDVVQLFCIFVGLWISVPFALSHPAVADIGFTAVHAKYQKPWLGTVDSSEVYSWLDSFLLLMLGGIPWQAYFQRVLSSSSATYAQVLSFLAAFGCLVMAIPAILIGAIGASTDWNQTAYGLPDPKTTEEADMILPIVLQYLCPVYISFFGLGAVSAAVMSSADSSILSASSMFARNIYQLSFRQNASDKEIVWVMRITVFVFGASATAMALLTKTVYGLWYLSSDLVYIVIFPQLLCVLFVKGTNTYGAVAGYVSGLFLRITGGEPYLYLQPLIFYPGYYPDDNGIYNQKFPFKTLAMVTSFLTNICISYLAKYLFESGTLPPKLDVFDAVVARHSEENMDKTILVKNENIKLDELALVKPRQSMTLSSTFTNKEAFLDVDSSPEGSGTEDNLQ
# Tumor necrosis factor = Tumor necrosis factor (Homo sapiens, UniProt P01375); assay: analog potency on TNFa NF-kB signaling – cell-based, revised, SAR follow-up (AID 2337); type: functional
# [8] = target: T5, Nucleotide-binding oligomerization domain-containing protein 1 (Homo sapiens, UniProt Q9Y239); assay: blockers of NOD1 pathway activity – revised, SAR follow-up (AID 2333); type: functional
# T5 sequence (Q9Y239 whole entry): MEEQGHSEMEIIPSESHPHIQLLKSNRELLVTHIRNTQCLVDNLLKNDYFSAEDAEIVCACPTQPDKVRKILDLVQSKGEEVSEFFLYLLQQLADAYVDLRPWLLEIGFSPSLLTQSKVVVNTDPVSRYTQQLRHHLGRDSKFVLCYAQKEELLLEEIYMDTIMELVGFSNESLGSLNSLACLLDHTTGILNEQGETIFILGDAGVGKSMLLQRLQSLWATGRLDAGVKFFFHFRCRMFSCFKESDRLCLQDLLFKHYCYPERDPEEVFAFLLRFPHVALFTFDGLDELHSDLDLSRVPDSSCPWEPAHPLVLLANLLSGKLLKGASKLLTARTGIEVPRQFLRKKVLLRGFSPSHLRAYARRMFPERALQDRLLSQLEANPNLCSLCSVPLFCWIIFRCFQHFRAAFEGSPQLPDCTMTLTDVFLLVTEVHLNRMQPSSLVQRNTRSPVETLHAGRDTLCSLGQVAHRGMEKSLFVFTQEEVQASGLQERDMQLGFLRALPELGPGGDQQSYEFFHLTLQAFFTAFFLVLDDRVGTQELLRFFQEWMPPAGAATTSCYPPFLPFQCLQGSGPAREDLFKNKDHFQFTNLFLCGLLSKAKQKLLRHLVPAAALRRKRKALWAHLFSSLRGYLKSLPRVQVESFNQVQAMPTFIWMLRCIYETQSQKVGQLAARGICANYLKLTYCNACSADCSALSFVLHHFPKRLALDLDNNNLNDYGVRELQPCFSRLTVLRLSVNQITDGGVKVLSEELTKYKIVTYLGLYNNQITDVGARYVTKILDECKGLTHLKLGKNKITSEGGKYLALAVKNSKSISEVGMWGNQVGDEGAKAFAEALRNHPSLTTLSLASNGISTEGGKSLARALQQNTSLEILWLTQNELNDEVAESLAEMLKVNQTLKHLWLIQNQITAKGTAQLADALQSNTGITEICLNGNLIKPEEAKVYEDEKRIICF
# [9] = blockers of HIV-1 ZM109 envelope-driven cell-cell fusion – HeLa effector, CEM target cells, luciferase, cherry-pick, dose response (AID 652058); type: functional, cell-based;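 note: luciferase signal from HIV-1 Env mediated cell-cell fusion of effector and target cells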
# [10] = HIV-1 AD8 envelope cell-cell fusion blockers – cherry-pick, dose response (AID 652062); type: functional, cell-based;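 note: luciferase signal from cell-cell fusion driven by HIV-1 clade B AD8 Env; potency is for inhibitors of fusion seen as a drop in luminescence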
# [11] = target: T6, COUP transcription factor 2 (Homo sapiens, UniProt P24468); assay: Luminescence-based cell-based high throughput dose response assay to identify inhibitors of COUP-TFII (NR2F2).; type: functional;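 note: HEK293 cells transiently cotransfected with COUP-TFII expression vector and reporter; luciferase reporter luminescence driven by COUP-TFII from the pX2-168 reporter plasmid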
# T6 sequence (P24468 whole entry): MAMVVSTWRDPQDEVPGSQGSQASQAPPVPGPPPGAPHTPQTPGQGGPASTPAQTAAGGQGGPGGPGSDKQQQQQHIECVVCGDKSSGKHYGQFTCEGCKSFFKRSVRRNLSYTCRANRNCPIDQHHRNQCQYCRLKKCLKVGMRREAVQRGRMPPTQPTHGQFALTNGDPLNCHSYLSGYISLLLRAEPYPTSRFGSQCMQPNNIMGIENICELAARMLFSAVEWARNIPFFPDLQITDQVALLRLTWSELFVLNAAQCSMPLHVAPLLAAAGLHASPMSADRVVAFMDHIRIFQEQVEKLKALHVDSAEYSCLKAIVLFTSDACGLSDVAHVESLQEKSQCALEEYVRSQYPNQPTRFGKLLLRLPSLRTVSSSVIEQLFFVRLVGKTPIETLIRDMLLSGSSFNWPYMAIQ
# HEK293 = assay: cells; settings: Homo sapiens;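 note: cells exposed to compound for 14 hours overnight before viability readout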
# [12] = target: Glyceraldehyde-3-phosphate dehydrogenase (Homo sapiens, UniProt P04406)
# [13] = target: Alkaline phosphatase, placental type (Homo sapiens, UniProt P05187); assay: human placental alkaline phosphatase inhibition – biochemical, luminescence, confirmation (AID 1512); type: functional
# [14] = target: T3, Alkaline phosphatase, tissue-nonspecific isozyme; assay: potency against alkaline phosphatase TNAP – biochemical, luminescent, dose response, SAR follow-up (AID 1056)
# [15] = target: T7, Replicative DNA helicase DnaB (Mycobacterium tuberculosis, UniProt P9WMR3); assay: DnaB intein splicing inhibitors, dose response, biochemical, cell-free fluorescence (AID 449749); type: functional
# T7 sequence (P9WMR3 whole entry): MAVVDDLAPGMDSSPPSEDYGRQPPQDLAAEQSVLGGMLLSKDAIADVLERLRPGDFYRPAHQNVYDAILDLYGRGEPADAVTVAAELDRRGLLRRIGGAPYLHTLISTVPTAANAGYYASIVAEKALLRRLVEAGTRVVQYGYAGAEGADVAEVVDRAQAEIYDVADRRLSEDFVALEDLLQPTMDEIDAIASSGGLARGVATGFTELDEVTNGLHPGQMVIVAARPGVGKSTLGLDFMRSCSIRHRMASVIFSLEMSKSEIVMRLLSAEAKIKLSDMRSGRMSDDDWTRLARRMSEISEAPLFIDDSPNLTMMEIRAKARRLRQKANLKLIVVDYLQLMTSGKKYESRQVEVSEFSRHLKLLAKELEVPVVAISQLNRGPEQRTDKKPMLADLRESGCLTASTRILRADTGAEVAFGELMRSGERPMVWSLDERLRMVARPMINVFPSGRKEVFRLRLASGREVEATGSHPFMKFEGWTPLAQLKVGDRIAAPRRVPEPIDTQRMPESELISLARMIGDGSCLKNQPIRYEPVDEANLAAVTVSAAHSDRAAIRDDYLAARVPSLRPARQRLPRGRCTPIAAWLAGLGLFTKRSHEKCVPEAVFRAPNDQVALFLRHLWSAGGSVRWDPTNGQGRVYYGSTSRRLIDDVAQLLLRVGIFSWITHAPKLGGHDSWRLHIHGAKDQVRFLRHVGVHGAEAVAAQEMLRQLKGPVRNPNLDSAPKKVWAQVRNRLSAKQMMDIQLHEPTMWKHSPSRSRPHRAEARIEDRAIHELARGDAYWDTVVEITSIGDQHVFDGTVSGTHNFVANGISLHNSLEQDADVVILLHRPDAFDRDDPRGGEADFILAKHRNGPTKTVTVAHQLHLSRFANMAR
# Protein RecA = target: T8, Protein RecA (Mycobacterium tuberculosis, UniProt P9WHJ3); assay: Fluorescence Cell-Free Homogeneous Dose Retest to Identify Inhibitors of RecA-Intein Splicing Activity. [Related pubchem assays (depositor defined):AID2097, AID2223, AID489010, AID492950]; type: functional
# T8 sequence (P9WHJ3 whole entry): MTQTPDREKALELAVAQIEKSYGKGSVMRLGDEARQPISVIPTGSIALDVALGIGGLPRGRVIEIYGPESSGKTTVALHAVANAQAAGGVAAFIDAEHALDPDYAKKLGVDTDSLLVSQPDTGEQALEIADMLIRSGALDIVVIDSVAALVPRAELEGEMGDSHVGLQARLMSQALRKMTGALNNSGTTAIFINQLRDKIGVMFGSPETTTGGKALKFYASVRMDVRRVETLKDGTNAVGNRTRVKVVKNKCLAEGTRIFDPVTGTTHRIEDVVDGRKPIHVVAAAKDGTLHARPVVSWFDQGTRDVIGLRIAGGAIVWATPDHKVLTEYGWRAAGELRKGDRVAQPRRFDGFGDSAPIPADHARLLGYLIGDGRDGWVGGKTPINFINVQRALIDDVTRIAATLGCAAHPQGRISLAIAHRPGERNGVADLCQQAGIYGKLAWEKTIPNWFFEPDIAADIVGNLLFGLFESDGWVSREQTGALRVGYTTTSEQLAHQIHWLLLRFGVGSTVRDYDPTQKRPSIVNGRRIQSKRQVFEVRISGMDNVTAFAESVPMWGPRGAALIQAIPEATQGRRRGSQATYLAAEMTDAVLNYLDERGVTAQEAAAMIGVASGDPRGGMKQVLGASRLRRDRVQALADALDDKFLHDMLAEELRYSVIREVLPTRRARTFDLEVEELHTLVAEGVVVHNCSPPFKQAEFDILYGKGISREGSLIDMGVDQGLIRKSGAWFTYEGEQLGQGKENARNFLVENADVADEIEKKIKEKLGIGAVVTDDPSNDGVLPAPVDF
# Chain of Intestinal-type alkaline phosphatase (Mus musculus, UniProt P24822) (P24822 whole entry): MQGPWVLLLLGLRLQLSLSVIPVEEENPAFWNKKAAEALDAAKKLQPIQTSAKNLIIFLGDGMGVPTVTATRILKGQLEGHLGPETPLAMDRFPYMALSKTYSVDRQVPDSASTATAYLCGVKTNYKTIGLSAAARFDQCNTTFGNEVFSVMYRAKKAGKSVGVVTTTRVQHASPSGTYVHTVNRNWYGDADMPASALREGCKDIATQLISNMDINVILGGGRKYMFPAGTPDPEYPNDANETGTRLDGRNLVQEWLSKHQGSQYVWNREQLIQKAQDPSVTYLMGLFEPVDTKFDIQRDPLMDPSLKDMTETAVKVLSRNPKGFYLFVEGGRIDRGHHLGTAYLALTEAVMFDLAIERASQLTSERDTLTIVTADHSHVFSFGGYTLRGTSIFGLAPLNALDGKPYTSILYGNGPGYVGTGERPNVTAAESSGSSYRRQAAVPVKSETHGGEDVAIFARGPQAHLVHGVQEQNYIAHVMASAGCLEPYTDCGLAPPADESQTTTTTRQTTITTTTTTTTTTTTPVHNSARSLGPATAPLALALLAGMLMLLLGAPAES
# T2 sequence (P09923 whole entry): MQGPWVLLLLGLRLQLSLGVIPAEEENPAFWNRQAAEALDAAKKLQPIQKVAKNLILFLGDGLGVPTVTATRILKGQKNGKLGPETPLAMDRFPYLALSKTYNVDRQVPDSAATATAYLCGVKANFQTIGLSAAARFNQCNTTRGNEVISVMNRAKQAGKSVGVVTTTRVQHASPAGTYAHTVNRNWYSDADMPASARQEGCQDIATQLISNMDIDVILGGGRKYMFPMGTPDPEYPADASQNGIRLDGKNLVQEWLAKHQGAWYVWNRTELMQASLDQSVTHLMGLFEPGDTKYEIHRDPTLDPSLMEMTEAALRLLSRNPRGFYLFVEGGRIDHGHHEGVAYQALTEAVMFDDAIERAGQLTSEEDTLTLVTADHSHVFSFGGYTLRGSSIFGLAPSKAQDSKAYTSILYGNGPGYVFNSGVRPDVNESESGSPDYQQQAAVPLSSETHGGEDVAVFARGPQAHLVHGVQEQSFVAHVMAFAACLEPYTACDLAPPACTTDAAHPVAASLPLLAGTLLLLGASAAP
# Chain of Glyceraldehyde-3-phosphate dehydrogenase (P04406 whole entry): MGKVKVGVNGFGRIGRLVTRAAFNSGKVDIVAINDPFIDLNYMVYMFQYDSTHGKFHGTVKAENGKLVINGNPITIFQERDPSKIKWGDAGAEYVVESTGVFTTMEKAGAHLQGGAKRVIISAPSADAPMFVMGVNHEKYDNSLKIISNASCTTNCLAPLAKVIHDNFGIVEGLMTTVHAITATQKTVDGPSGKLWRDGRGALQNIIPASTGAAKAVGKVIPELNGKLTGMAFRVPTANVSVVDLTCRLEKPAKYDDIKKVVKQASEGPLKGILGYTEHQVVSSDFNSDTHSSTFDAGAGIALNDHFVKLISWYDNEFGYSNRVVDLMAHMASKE
# Chain of Alkaline phosphatase, placental type (P05187 whole entry): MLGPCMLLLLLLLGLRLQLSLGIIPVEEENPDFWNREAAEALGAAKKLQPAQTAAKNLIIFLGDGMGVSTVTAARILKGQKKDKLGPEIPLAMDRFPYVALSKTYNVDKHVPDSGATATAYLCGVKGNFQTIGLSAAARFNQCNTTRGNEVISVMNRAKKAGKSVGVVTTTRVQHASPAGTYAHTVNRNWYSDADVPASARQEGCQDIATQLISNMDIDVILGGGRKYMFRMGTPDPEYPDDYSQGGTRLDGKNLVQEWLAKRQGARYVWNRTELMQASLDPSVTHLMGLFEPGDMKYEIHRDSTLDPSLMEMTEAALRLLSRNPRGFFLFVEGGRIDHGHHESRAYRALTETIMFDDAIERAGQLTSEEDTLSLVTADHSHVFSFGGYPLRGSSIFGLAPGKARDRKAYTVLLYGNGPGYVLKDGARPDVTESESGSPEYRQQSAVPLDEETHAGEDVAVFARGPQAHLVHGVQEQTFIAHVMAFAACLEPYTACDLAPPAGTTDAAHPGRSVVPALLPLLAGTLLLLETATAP
# T1 sequence (Q01196 whole entry, the tested form may be a part): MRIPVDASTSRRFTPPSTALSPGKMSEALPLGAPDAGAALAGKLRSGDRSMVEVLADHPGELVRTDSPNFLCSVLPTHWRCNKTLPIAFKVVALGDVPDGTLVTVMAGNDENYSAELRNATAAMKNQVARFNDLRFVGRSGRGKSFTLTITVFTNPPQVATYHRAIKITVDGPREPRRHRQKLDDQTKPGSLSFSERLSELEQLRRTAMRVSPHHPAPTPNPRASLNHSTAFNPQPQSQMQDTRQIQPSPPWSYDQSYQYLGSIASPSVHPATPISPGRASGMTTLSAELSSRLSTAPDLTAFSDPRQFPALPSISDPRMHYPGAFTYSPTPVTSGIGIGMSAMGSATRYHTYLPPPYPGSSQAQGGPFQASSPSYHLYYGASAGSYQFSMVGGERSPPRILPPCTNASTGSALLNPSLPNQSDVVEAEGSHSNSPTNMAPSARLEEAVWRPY
# T1 sequence (Q13951 whole entry, the tested form may be a part): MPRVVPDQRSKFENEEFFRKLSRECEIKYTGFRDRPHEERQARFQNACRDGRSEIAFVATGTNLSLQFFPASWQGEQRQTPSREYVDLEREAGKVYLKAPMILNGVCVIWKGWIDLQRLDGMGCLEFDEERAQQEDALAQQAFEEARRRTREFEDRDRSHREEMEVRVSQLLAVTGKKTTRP
# Chain of Tumor necrosis factor (P01375 whole entry, the tested form may be a part): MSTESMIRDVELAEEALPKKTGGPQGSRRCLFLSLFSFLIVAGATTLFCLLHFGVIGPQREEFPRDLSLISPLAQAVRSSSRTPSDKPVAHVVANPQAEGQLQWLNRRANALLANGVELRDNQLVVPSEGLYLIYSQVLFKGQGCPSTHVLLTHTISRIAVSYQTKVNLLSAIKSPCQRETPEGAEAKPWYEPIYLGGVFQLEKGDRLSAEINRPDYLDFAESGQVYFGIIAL
structure (smiles),measurement,setting,value
CCCc1cc2c(OC(=O)CC)c(-c3ccc(C(=O)OCC)o3)c(=O)oc2cc1OC,IC50,[1],5.51 µM (active)
same,IC50,[2],7.94 µM (active)
CCOc1ccc(CC(=O)NNC(=S)NC2CCCCC2)cc1OCC,IC50,[3],40.9 µM (active)
same,EC50,[4],18.7 µM (active)
same,EC50,[5],17.8 µM (active)
same,EC50,[6],17.2 µM (active)
O=C(c1cccc(OC2CCN(Cc3ccc(F)cc3Cl)CC2)c1)N1CCCC1,IC50,[7],18.2 µM (active)
Cc1cc(C(=O)NC2CCCc3c2cnn3-c2ccc(C(C)(C)C)cc2)nn1C (stereo unspecified),IC50,Tumor necrosis factor,1.44 µM (active)
same,IC50,[8],1.33 µM (active)
same,AC50,[9],1.86 µM (active)
same,AC50,[10],4.61 µM (active)
same,IC50,[11],5.2 µM (active)
same,IC50,HEK293,12.2 µM (active)
CC1CCN(CCNC(=O)C2CCCN(S(=O)(=O)c3cccc4nsnc34)C2)CC1 (stereo unspecified),IC50,[7],15.8 µM (active)
CN(C)C(=O)N1CCN(S(=O)(=O)c2ccc3ccccc3c2)CC1,IC50,[7],12.9 µM (active)
CCCc1c(O)oc2nnc(C)c-2c1C,IC50,[12],> 100 µM (not active)
same,IC50,[13],> 100 µM (inactive)
same,IC50,[14],> 100 µM (inactive)
same,AC50,[15],23.6 µM (active)
same,EC50,Protein RecA,14.8 µM (active)
CC(C)c1nc(N)nn1-c1ccccc1,IC50,[12],> 100 µM (not active)
same,IC50,[13],> 100 µM (inactive)
same,IC50,[14],> 100 µM (inactive)
CSCCC(NS(=O)(=O)c1ccc(C)cc1)C(=O)NNC(=O)c1csc(N2CCOCC2)n1 (stereo unspecified),IC50,[3],66.6 µM (active)
same,EC50,[4],9.84 µM (active)
same,EC50,[5],14.1 µM (active)
same,EC50,[6],19.1 µM (active)
Cc1cc(=O)[nH]c(-n2[nH]c3c(c2=O)CCCC3)n1,IC50,[3],> 100 µM (inactive)
same,EC50,[4],9.58 µM (active)
same,EC50,[5],19.8 µM (active)
same,EC50,[6],12.2 µM (active)

# Reference: ChEMBL document CHEMBL1201862, “PubChem BioAssay data set” (2004)
